From PMC10050199 (Sensors and Actuators. B, Chemical, 2023)

Columns and labels:
SARS-CoV-2 S1 = format: binding
SARS-CoV-2 SP [1] = target: T1, SARS-CoV-2 SP (Severe acute respiratory syndrome coronavirus 2, UniProt P0DTC2)
SARS-CoV-2 SP [2] = target: T1, SARS-CoV-2 SP; remark: listed apart in the source

## WNLDLSQWLPPM [P1-phage]
SARS-CoV-2 S1
  binding to SARS-CoV-2 S1: may also bind to SARS-CoV-2 S1 loosely
SARS-CoV-2 SP [1]
  binding to SARS-CoV-2 SP (absorbance): higher absorbance value and was significantly higher than that of the control

## WNLDLSQWLPPM [P1]
SARS-CoV-2 SP [2]
  frequency of peptide sequence among sequenced phage monoclonals: 16/30
